Results on 31 molecules are retold here after paper PMC4444576, “Prospective performance evaluation of selected common virtual screening tools. Case study: Cyclooxygenase (COX) 1 and 2” (European Journal of Medicinal Chemistry, 2015).

Read-outs that look alike come from different tables or passages of the source.

Series [1] relates to COX. As to conditions: cited from earlier work; for Activity: data from the literature.
Series [2] relates to COX. Nature of the series: Biological testing for COX-inhibiting activity, overall outcome on both isoforms. In kind it is biochemical. As to conditions: for COX isoform selectivity: COX-1 versus COX-2; for Activity: biological testing of this study.
For series [3], the target named is T1, ram seminal vesicle COX-1 (Ovis aries, UniProt P05979).
T1 construct: ram seminal vesicle COX-1 (1 U) (Sigma–Aldrich); purchased Sigma–Aldrich; host or cells: ram seminal vesicle (tissue of origin)
T1 sequence (P05979 25-600): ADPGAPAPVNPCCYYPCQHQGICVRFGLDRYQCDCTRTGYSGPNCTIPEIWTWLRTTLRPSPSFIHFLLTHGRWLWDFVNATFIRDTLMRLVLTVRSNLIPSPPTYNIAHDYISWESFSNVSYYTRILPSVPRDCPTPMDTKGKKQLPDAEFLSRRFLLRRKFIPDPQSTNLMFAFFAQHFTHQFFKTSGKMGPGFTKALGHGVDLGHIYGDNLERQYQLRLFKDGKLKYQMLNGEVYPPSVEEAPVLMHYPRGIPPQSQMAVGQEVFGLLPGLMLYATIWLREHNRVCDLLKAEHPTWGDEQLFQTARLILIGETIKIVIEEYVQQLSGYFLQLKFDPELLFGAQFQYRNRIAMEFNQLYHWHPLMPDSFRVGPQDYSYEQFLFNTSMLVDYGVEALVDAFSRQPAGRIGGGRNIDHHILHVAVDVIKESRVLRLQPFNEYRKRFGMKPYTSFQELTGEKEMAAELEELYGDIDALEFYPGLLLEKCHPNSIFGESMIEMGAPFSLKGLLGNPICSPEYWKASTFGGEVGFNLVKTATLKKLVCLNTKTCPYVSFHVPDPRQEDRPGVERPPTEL
Nature of the series: COX-1 inhibition assay (PGE2 EIA). It is filed as biochemical. As to conditions: for inhibition at 20 µM: read-out: % inhibition at 20µM, COX-1.

Series [4] relates to U937 cells. The arrangement: method as in PMID 19958764. As to conditions: stimulated differentiated U937 cells; cited from earlier work.
Series [5] deals with T2, human recombinant COX-2 (Homo sapiens, UniProt P35354).
T2 construct: purchased Sigma–Aldrich
T2 sequence (P35354 18-604): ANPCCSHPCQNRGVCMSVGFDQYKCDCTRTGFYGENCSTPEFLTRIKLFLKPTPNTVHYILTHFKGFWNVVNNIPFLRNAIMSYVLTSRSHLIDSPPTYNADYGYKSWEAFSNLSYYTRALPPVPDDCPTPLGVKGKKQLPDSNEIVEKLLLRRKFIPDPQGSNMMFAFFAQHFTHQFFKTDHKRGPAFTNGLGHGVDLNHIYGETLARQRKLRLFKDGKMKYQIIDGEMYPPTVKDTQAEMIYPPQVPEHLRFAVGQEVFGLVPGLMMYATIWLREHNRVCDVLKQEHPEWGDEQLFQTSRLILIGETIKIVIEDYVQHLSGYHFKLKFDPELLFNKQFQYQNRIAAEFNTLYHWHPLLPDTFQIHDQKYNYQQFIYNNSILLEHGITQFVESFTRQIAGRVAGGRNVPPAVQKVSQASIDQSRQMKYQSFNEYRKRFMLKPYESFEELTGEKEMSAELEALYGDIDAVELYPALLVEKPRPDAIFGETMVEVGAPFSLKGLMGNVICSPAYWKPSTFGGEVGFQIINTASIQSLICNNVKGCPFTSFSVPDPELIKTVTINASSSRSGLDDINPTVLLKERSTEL
Description: COX-2 inhibition assay (PGE2 EIA). In kind it is biochemical. As to conditions: for inhibition at 20 µM: read-out: % inhibition at 20µM, COX-2.

The subject of series [6] is mice and rats. On the set-up: method as in earlier work. As to conditions: ref 1 (Supporting Information), cited from earlier work.
Series [7] deals with COX. On the set-up: method as in PMID 22053353. As to conditions: read-out: IC50, oxidation of endocannabinoids; cited from earlier work.
Setting [8] is: average of at least two independent experiments, triplicates, read-out: IC50 COX-1.
Where [9] appears, read: average of at least two independent experiments, triplicates, read-out: IC50 COX-2.

`CC(C(=O)O)c1ccc(N2Cc3ccccc3C2=O)cc1` (centres unmarked) [Indoprofen]: the Activity result in series [1] was “Active [55]”.

Take `COc1cc(/C=C2\CCC/C(=C\c3ccc(O)c(OC)c3)C2=O)ccc1O` [Cyqualon (3), Cyqualon]: in series [2], the COX isoform selectivity result is reported as “COX-1 selective” and the result was Active. In series [3] (setting [8]), the IC50 stood at 1.5 ± 2.1 µM. Further, in series [4], the PGE2-formation result is reported as “did not prevent PGE2-formation”. Moreover, the IC50 in series [5] (setting [9]) was over 20 µM.

For `O=C(O)c1cc(/N=N/c2ccc(S(=O)(=O)Nc3ccccn3)cc2)ccc1O` [Sulfasalazin], in series [1] (no IC50 available), the COX-inhibition entry is reported as “Evidence for COX-inhibition”.

For `COc1ccc2c(c1)c(CC(=O)O)c(C)n2C(=O)c1ccc(Cl)cc1` [Indometacin], in series [1], the Activity entry is “Active [54]”.

With `Cc1cccc(Nc2ccccc2C(=O)O)c1C` [Mefenamic acid], the Activity result in series [1] is “Active [58]”.

On to `COc1ccc(C(Cl)=C(c2ccc(OC)cc2)c2ccc(OC)cc2)cc1` [chlorotrianisene], for which the COX inhibition result in series [1] (identified by SEA) is “COX-inhibitor”.

Consider `CCC(c1ccc(O)c(F)c1)C(C)c1ccc(O)c(F)c1` (centres unmarked) [Bifluranol (1), Bifluranol], for which, in series [2], the COX isoform selectivity result is reported as “COX-1 selective”. In series [2], the result was Active. In addition, the half-inhibitory concentration (IC50) in series [3] (setting [8]) is 33 ± 7.3 µM; in series [5] (setting [9]) it was over 20 µM. Moreover, in series [6] (mice and rats, compared to DES), the anti-prostatic effects result is “comparable extent to diethylstilbestrol (DES)”. The “estrogenicity, lower compared to DES” value in series [6] is on record as “approximately 8 fold”. Moreover, the spermatogenesis or fertility entry in series [6] (unlike DES) is given as “did not impair spermatogenesis or fertility”.

On to `COc1ccc2cc3[n+](cc2c1OC)CCc1cc2c(cc1-3)OCO2` [Berberin], for which the values for the Activity result in series [1] and in series [1] (listed as Berberine) were “Inactive [50]” and “not by direct inhibition of the enzyme”, respectively.

On to `C=CCOc1ccc(CC(=O)O)cc1Cl` [Alclofenac], for which the Activity entry in series [1] was “Active [40]”.

`CC(C(=O)O)c1cccc(C(=O)c2ccccc2)c1` (centres unmarked) [Ketoprofen]: the Activity entry in series [1] is “Active [56]”.

As to `CC(C(=O)O)c1ccc(N2CC=CC2)c(Cl)c1` (centres unmarked) [Pirprofen], in series [1], the Activity entry was “Active [59]”.

For `O=S(=O)([O-])CCNc1ccc(S(=O)(=O)c2ccc(NCCS(=O)(=O)[O-])cc2)cc1.[Na+].[Na+]` [Baludon], the outcome in series [2] was Inactive. The “% inhibition at 20µM, COX-1” value in series [3] (triplicates) is reported as -8.4 ± 8.7%. Further, the “% inhibition at 20µM, COX-2” value in series [5] (triplicates) was -3.7 ± 15.4%.

On to `CC(C)(Oc1ccc(Cl)cc1)C(=O)O` [Clofibric acid], for which the outcome in series [2] was Inactive. Moreover, the figures for the inhibition at 20 µM in series [3] (triplicates) and in series [5] (triplicates) were 36.4 ± 17.4% and 7.1 ± 18.7%, respectively.

With `CC(C)(Oc1ccc(Cl)cc1)C(=O)OCCCOC(=O)c1cccnc1` [Ronifibrate], in series [2], the result was Inactive. Further, in series [3] (triplicates), the “% inhibition at 20µM, COX-1” value stood at 28.2 ± 11.6%. In addition, in series [5] (triplicates), the “% inhibition at 20µM, COX-2” value is recorded as 33.0 ± 5.7%.

`N[C@@H](Cc1cc(I)c(Oc2cc(I)c(O)c(I)c2)c(I)c1)C(=O)O` [Levothyroxin]: the outcome in series [2] was Inactive. The inhibition at 20 µM in series [3] (triplicates) is 12.9 ± 10.3%; in series [5] (triplicates), 14.9 ± 18.3%.

For the molecule `CC(C)Cc1ccc([C@H](C)C(=O)O)cc1` [(S)-ibuprofen], the Activity entry in series [1] was “Active [61]”.

For `O=S(O)CNc1ccc(S(=O)(=O)c2ccc(NCS(=O)O)cc2)cc1` [Sulfoxone], in series [2], the result was Inactive. Moreover, the inhibition at 20 µM in series [3] (triplicates) is -2.1 ± 16.4%; in series [5] (triplicates), -0.7 ± 6.4%.

As for `Cc1ncc(C[n+]2csc(CCO)c2C)c(N)n1` [Thiamine monochloride], the result in series [2] was Inactive. The values for the inhibition at 20 µM in series [3] (triplicates) and in series [5] (triplicates) were 13.8 ± 15.6% and -3.2 ± 6.9%, respectively.

`CC(C)Cc1ccc([C@@H](C)C(=O)O)cc1` [(R)-ibuprofen]: the half-maximal inhibitory concentration (IC50) in series [7] is about 10 µM. In series [1], the “PGE2 formation from AA” value was “only inhibited at high concentrations” and the Activity entry was “Active [60]”.

Regarding `Cc1ccc(Cl)c(Nc2ccccc2C(=O)O)c1Cl` [Meclofenamic acid], the Activity entry in series [1] was “Active [57]”.

As to `Cc1c(Nc2ncccc2C(=O)O)cccc1C(F)(F)F` [Flunixin meglumine], the Activity entry in series [1] was “Active [53]”.

In the case of `CC(C)NCC(O)COc1ccc(COCCOC(C)C)cc1` (centres unmarked) [Bisoprolol], the outcome in series [2] was Inactive. The results for the inhibition at 20 µM in series [3] (triplicates) and in series [5] (triplicates) were -1.4 ± 7.7% and 10.2 ± 7%, respectively.

For `CC(C(=O)O)c1ccc(C(=O)c2ccccc2)s1` (centres unmarked) [Tiaprofenic acid], in series [1], the Activity entry is “Active [55]”.

In the case of `CC(C(=O)O)c1ccc2c(c1)[nH]c1ccc(Cl)cc12` (centres unmarked) [Carprofen], the Activity result in series [1] is “Active [51]”.

As for `COCCCN1CCN(c2ccccc2OC)CC1` [Dimetholizine], in series [2], the result was Inactive. Also, the inhibition at 20 µM was -15.1 ± 23.4% in series [3] (triplicates) and -8.7 ± 8.2% in series [5] (triplicates).

In the case of `O=C(O)CCC(=O)c1ccc(-c2ccccc2)cc1` [Fenbufen], the Activity entry in series [1] is “Active [52]”.

With `O=C(O)c1ccc(Cl)c(Cl)c1` [3,4-dichlorobenzoic acid], in series [2], the outcome was Inactive. The figures for the inhibition at 20 µM in series [3] (triplicates) and in series [5] (triplicates) were -1.8 ± 14.3% and 0.1 ± 3.3%, respectively.

As for `O=C(OCC(O)CO)c1ccccc1Nc1ccnc2cc(Cl)ccc12` (centres unmarked) [Glafenine], the outcome in series [2] was Inactive. Further, the inhibition at 20 µM is 3.7 ± 34.6% in series [3] (triplicates) and 3.5 ± 6% in series [5] (triplicates).

Consider `C#C[C@]1(O)CC[C@H]2[C@@H]3CCc4cc(O)ccc4[C@H]3CC[C@@]21C` [17α-ethinylestradiol], for which, in series [2], the outcome was Inactive. The values for the inhibition at 20 µM in series [3] (triplicates) and in series [5] (triplicates) were 0.4 ± 16.7% and -5.2 ± 11.6%, respectively.

With `CC/C(=C(/CC)c1ccc(OP(=O)(O)O)cc1)c1ccc(OP(=O)(O)O)cc1` [Fosfestrol], the result in series [2] was Inactive. The inhibition at 20 µM in series [3] (triplicates) came to 29.1 ± 9.7%; in series [5] (triplicates) it was 26 ± 5%.

In the case of `CNC(=O)Oc1ccc(-c2ccccc2)cc1` [Paxamate (4), Paxamate], in series [2], the COX isoform selectivity entry is “COX-1 selective” and the result was Active. In addition, the IC50 in series [3] was found to be 17.1 ± 3.1 µM. Besides, the half-inhibitory concentration (IC50) in series [5] is over 20 µM.

By IC50 is commonly meant the concentration that gives 50% inhibition. Usually % inhibition stands for the relative decrease from the control value, in per cent. Usually inhibition stands for the relative decrease from the control value, in per cent.
